Tested on: GIRK currents
Test: patch clamp assay, control treatment with Pertussis toxin or GIRK inhibitor
Type: cell-based, human
Settings: Tertiapin 100 nM, pertussis toxin 100 ng/ml overnight
Experimental: HEK 293 cells expressing HKIR3.1/3.2 channel and human somatostatin receptor 2 were treated with these compounds, and whole cell patch-clamp current recordings taken.
Whole cell patch-clamp current recordings were performed with an Axopatch 200B amplifier (Axon Instruments) using fire-polished pipettes with a resistance of 3-4 MΩ pulled from filamented borosilicated glass capillaries (Harvard Apparatus, 1.5 mm OD×1.17 mm ID). Data was acquired and analysed via a Digidata 1322A interface (Axon Instruments) and pCLAMP software (version 8.1, Axon Instruments). A fast perfusion system was used to apply somatostatin and analogues (Rapid Solution Changer, RSC-160, Bio-Logic France). Cells were clamped at −60 mV. The extracellular solution was (mM): NaCl 80, KCl 60, CaCl22, MgCl21, HEPES 10, NaH2PO4 0.33, glucose 10, pH 7.4; while the intracellular solution was (mM): K gluconate 110, KCl 20, NaCl 10, MgCl2 1, MgATP 2, EGTA 2 GTP 0.3, pH 7.4. After agonist application, current activated with a delay “lag” followed by a rapid rise to peak amplitude “time to peak”. After removal of the agonist, the current decays back to baseline. For each cell it was assessed if flow artifacts resulting from the pressure of drug application were present. This was done by applying bath solution from one of the sewer pipes at the beginning of the recordings. […]

Row | Substance | GIRK currents when cells were treated with control inhibitor
1 | Pertussis toxin | currents were largely inhibited
2 | Tertiapin Q | currents were largely inhibited
